ChEMBL document CHEMBL1138127, “Conversion of potent MMP inhibitors into selective TACE inhibitors” (Bioorg Med Chem Lett, 2006)

Legend:
Collagenase 3 = Collagenase 3 (Homo sapiens, UniProt P45452); assay: Binding affinity to MMP13
[1] = biological target: Matrix metalloproteinase-9 (Homo sapiens, UniProt P14780); assay: Binding affinity to MMP9
[2] = biological target: Disintegrin and metalloproteinase domain-containing protein 17 (Homo sapiens, UniProt P78536); assay: Inhibitory activity against TACE
[3] = biological target: 72 kDa type IV collagenase (Homo sapiens, UniProt P08253); assay: Binding affinity to MMP2
Interstitial collagenase = biological target: T1, Interstitial collagenase (Homo sapiens, UniProt P03956); assay: Binding affinity to MMP1
T1 sequence (P03956 whole entry): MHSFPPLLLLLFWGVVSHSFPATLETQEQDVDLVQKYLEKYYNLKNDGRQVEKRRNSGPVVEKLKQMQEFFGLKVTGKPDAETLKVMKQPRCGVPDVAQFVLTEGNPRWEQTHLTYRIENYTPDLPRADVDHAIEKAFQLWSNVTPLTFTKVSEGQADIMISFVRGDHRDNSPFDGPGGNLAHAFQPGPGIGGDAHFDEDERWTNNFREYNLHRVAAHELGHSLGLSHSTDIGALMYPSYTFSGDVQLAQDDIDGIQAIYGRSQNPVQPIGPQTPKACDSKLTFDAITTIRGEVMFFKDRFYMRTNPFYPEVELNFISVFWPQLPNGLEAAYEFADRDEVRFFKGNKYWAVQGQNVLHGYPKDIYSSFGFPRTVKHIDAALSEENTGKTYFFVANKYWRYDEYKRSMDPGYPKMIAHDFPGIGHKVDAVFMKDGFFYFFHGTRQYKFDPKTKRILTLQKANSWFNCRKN

Sequence of 72 kDa type IV collagenase (P08253 whole entry): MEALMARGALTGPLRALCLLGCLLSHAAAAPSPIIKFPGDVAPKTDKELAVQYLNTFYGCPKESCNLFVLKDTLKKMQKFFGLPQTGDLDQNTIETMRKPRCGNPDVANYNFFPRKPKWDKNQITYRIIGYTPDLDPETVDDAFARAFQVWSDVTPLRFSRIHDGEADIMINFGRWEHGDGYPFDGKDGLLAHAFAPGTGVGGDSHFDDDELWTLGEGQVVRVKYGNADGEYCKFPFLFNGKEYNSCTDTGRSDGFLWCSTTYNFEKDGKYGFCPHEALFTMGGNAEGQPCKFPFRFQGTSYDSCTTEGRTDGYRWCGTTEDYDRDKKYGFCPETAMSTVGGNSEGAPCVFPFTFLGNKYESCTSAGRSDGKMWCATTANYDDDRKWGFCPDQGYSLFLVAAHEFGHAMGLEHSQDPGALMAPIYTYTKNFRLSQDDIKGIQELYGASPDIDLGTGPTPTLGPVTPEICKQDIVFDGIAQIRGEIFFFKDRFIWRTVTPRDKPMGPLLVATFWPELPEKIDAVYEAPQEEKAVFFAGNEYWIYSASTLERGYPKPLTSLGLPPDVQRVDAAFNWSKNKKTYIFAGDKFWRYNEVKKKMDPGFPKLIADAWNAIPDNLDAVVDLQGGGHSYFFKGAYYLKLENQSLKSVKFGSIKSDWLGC
Sequence of Matrix metalloproteinase-9 (P14780 whole entry, the tested form may be a part): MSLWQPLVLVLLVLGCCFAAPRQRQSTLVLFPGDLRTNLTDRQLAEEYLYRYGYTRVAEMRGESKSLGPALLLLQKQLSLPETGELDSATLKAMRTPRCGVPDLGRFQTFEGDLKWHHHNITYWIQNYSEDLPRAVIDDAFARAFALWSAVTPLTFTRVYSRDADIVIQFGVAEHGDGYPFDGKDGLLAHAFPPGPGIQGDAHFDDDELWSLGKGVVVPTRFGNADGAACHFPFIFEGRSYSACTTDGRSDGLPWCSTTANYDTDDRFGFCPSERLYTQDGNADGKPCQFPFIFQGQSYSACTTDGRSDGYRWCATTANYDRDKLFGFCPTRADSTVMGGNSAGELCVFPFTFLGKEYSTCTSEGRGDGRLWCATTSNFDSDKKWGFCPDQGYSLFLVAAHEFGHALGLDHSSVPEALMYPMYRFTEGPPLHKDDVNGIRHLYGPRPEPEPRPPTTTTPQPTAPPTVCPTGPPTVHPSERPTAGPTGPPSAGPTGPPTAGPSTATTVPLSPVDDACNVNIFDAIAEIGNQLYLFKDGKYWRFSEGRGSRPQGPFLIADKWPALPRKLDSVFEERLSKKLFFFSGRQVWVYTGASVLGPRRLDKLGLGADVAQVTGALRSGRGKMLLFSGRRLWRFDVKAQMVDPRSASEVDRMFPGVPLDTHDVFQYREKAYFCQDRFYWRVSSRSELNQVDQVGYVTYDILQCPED
Sequence of Disintegrin and metalloproteinase domain-containing protein 17 (P78536 whole entry, the tested form may be a part): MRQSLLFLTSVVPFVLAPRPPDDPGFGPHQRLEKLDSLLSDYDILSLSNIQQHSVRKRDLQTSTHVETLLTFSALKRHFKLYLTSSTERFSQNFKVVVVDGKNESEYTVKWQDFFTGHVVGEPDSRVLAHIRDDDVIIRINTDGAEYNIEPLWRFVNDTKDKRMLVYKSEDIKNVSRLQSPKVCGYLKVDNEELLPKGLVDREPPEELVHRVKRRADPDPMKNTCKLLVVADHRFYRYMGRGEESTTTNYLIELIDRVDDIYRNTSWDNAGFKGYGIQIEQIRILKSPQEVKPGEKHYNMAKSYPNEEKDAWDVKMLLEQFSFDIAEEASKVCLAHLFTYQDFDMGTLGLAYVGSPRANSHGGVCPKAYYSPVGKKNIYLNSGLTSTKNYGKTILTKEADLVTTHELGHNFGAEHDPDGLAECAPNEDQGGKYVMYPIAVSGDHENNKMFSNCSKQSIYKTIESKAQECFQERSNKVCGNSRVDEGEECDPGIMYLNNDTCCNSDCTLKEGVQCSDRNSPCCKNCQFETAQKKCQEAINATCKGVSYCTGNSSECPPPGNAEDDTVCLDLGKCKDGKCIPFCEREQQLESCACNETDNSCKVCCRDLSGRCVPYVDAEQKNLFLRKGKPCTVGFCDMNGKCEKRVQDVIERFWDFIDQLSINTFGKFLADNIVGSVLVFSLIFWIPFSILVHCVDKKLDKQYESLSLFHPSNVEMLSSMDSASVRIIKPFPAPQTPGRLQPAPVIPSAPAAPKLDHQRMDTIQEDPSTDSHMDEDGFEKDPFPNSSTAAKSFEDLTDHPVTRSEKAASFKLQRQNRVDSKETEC

Structure (SMILES) | Ki (Collagenase 3) [nM] | Ki [1] [nM] | IC50 [2] [nM] | Ki [3] [nM] | Ki (Interstitial collagenase) [nM]
Cc1cc(COc2ccc(N3C(C(=O)NO)CCCS3(=O)=O)cc2)c2ccccc2n1 (configuration not stated) | > 5030 | > 2130 | 3.7 | > 3330 | > 4950
Cc1cc(COc2ccc(N3C(C(=O)NO)CNS3(=O)=O)cc2)c2ccccc2n1 (configuration not stated) | > 5030 | > 2130 | 8.3 | > 3330 | > 4950
Cc1cc(COc2ccc(CN3C(C(=O)NO)CCS3(=O)=O)cc2)c2ccccc2n1 (configuration not stated) | > 5030 | > 2130 | 900 | > 3330 | > 4950
COc1ccc(-c2ccc(CN3C(C(=O)NO)CCS3(=O)=O)cc2)cc1 (configuration not stated) | – | – | > 1000 | – | > 4950
Cc1cc(COc2ccc(CC3C(C(=O)NO)CCS3(=O)=O)cc2)c2ccccc2n1 (configuration not stated) | > 5030 | > 2130 | 150 | > 3330 | > 4950
Cc1cc(COc2ccc(N3C(C(=O)NO)CCS3(=O)=O)cc2)c2ccccc2n1 (configuration not stated) | > 5030 | > 2130 | 5.9 | > 3330 | > 4950
Cc1cc(COc2ccc(CCN3C(C(=O)NO)CCS3(=O)=O)cc2)c2ccccc2n1 (configuration not stated) | > 5030 | > 2130 | 480 | > 3330 | > 4950
